# Active and inactive are the calls of the source.
# Key:
# [1] = Luminescence Cell-Based Dose Confirmation HTS to Identify Inhibitors of Platelet Dense Granule Release. [Related pubchem assays: 1663 (Primary HTS), 1678 (Summary of Project)]; format: functional
# [2] = molecular target: Luciferin 4-monooxygenase (Photinus pyralis, UniProt P08659); assay: inhibition of purified Photinus pyralis luciferase – biochemical, luminescence, dose response (AID 1891)
# cells [3] = format: functional, cell-based; settings: HEK-CNG
# Galanin receptor type 3 = molecular target: T1, Galanin receptor type 3 (Homo sapiens, UniProt O60755); assay: Fluorescence-based cell-based primary high throughput dose response assay to identify antagonists of the Galanin Receptor 3 (GalR3).; format: functional
# T1 sequence (O60755 whole entry): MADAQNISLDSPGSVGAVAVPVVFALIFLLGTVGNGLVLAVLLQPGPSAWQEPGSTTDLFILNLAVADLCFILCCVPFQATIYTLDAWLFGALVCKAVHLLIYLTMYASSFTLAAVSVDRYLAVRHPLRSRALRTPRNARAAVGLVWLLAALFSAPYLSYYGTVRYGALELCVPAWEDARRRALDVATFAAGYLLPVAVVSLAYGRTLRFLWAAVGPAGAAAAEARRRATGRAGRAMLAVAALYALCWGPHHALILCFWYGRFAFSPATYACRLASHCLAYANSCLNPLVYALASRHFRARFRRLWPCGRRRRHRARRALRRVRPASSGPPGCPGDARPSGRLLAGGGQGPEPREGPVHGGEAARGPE
# [4] = reduced cellular PGC1a acetyl-lysine signal – cell-based, cherry-picked samples, dose response (AID 720514); format: functional;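 also: potency may reflect raised or lowered acetylation signal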
# cells [5] = format: functional
# [6] = blockade of melanocortin 4 receptor signaling – cell-based, plate reader, cherry pick, counter-screen for LGR2 antagonist project, dose response (AID 743444); format: functional;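 also: transfected HEK 293 cells stimulated with alpha-MSH peptide; potency of inhibitors of the alpha-MSH evoked signal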
# [7] = toxicity toward HepG2 liver cells – cell-based, plate reader, cherry-pick, antagonist series, cytotoxicity control, dose response (AID 743416); format: functional
# [8] = A549 cell cytotoxicity, dose response, cytotoxicity control, plate reader, cherry-pick, antagonist series (AID 743412); format: functional, cell-based
# [9] = viability loss in HEK293 cells – cell-based, plate reader, cherry-picked samples, cytotoxicity control, dose response (AID 743446); format: functional
# [10] = blockers of bursicon-stimulated LGR2 cAMP reporter – cell-based, HEK293, CRE-luciferase reporter, cherry pick, set 2, dose response (AID 743343); format: functional;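 also: transfected cells were stimulated with diluted bursicon conditioned medium after compound addition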
# cells [11] = assay: cells
# [12] = molecular target: T2, Oxysterols receptor LXR-beta (Homo sapiens, UniProt P55055); format: functional, cell-based;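 also: Cell-based luminescence dose-response assay of agonist activity at LXR, run as a confirmatory counterscreen to a daf-12 agonist screen; HEK293 cells with Gal4-LXR fusion and GAL4-driven luciferase reporter; agonist potency from rising luciferase signal of a Gal4-LXR reporter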
# T2 sequence (P55055 whole entry): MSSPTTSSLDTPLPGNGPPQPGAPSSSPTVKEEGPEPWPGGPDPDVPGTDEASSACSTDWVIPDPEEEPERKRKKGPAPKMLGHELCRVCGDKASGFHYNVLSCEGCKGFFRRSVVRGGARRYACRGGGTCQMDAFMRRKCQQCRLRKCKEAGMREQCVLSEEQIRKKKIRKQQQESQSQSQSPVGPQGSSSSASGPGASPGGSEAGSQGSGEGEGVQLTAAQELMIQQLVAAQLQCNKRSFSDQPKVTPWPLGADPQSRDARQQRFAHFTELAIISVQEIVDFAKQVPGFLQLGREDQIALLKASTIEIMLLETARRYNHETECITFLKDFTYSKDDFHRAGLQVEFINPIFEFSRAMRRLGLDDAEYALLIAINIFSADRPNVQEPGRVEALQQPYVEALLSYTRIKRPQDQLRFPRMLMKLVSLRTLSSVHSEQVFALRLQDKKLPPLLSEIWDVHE
# [13] = Luminescence-based cell-based high throughput dose response assay to identify activators of the DAF-12 from the parasite S. stercoralis (ssDAF-12).; format: functional
# Paired box protein Pax-8 = Paired box protein Pax-8 (Homo sapiens, UniProt Q06710); assay: PAX8 transcriptional activity inhibition in RMG-I – RMG-I cells, luciferase, cherry-pick, dose response (AID 687027); format: functional, cell-based;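 also: luciferase reporter driven by Pax8 target thyroperoxidase promoter measured by SteadyGlo luminescence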
# HEK293 = assay: EBV LMP1 TES2 canonical NF-kB signalling blockers – cell-based, HEK293, luciferase, cherry-pick, dose response (AID 588343); format: functional; settings: Homo sapiens
# Sequence of Luciferin 4-monooxygenase (P08659 whole entry): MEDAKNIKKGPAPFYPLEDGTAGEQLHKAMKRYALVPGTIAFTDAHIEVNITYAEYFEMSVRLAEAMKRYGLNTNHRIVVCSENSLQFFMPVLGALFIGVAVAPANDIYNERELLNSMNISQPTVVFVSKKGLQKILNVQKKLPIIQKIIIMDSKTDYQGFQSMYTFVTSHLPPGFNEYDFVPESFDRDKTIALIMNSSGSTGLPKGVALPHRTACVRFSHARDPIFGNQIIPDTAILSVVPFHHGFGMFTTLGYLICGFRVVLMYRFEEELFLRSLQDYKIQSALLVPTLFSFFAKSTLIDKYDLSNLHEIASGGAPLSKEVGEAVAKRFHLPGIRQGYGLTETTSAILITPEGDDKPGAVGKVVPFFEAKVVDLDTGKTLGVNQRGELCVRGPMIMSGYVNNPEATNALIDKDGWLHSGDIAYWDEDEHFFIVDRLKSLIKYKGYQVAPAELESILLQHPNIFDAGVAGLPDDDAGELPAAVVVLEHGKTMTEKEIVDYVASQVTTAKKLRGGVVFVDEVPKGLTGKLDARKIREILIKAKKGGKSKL
# Sequence of Paired box protein Pax-8 (Q06710 whole entry): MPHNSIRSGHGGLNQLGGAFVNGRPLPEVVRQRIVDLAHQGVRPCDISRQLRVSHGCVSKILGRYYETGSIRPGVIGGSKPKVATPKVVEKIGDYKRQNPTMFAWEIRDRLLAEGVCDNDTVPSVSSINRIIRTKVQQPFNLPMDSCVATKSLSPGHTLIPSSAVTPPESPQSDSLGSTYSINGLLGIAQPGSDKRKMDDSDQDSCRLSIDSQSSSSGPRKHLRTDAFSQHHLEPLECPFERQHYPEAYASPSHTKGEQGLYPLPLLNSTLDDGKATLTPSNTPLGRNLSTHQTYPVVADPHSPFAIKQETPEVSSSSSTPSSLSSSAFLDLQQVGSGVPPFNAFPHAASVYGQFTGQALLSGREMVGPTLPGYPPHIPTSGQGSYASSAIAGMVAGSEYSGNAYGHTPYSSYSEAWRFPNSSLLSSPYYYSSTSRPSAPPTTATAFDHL
compound,measurement,setting,value
COc1ccc(C2CC(=O)Nc3sc(=N)c4c(N)c(C#N)c(N)nc4c32)cc1OC (centres undefined),EC50,[1],0.706 µM (active)
same,EC50,[2],> 112 µM (not active)
same,EC50,cells [3],> 29.9 µM (inactive)
same,IC50,Galanin receptor type 3,2.28 µM (active)
C[C@@H]1CN([C@@H](C)CO)S(=O)(=O)c2ccc(-c3ccc(C#N)cc3)cc2O[C@H]1CN(C)C(=O)CN(C)C,AC50,[4],26.5 µM (active)
O=C(COc1ccc2ccccc2c1)Nc1ccncc1,EC50,cells [3],> 29.9 µM (inactive)
same,IC50,Galanin receptor type 3,1.77 µM (active)
same,IC50,cells [5],6.95 µM (active)
C[C@@H]1CN([C@H](C)CO)C(=O)CCCn2nncc2CO[C@H]1CN(C)C(=O)Nc1cccc2ccccc12,AC50,[6],34.8 µM (active)
same,AC50,[7],> 52 µM (inactive)
COc1ccc(-c2cc3nc(NCc4ccc(N(C)C)cc4)n(C)c(=O)c3s2)cc1OC,AC50,[8],36 µM (active)
same,AC50,[9],3.28 µM (active)
same,AC50,[6],39 µM (active)
same,AC50,[10],31.3 µM (active)
same,AC50,[7],45.2 µM (active)
Nc1ccccc1-n1nc2ccc3ccccc3c2n1,EC50,cells [11],> 67.5 µM (inactive)
same,EC50,[12],> 67.5 µM (inactive)
same,IC50,[13],> 67.5 µM (inactive)
COc1ccc(-c2csc3ncnc(Sc4nnnn4C)c23)cc1,AC50,[8],26.8 µM (active)
same,AC50,Paired box protein Pax-8,4.92 µM (active)
same,AC50,[9],19.8 µM (active)
same,AC50,[6],20.8 µM (active)
same,AC50,HEK293,8.04 µM (active)
same,AC50,[10],17.8 µM (active)

# From ChEMBL document CHEMBL1201862, “PubChem BioAssay data set” (2004)
